Data reported in ChEMBL document CHEMBL4007392, “Modulating Mineralocorticoid Receptor with Non-steroidal Antagonists. New Opportunities for the Development of Potent and Selective Ligands without Off-Target Side Effects” (J Med Chem, 2017).
pIC50: −log10 of the molar value.

Target: T1, Mineralocorticoid receptor (Homo sapiens, UniProt P08235)
T1 sequence (P08235 whole entry): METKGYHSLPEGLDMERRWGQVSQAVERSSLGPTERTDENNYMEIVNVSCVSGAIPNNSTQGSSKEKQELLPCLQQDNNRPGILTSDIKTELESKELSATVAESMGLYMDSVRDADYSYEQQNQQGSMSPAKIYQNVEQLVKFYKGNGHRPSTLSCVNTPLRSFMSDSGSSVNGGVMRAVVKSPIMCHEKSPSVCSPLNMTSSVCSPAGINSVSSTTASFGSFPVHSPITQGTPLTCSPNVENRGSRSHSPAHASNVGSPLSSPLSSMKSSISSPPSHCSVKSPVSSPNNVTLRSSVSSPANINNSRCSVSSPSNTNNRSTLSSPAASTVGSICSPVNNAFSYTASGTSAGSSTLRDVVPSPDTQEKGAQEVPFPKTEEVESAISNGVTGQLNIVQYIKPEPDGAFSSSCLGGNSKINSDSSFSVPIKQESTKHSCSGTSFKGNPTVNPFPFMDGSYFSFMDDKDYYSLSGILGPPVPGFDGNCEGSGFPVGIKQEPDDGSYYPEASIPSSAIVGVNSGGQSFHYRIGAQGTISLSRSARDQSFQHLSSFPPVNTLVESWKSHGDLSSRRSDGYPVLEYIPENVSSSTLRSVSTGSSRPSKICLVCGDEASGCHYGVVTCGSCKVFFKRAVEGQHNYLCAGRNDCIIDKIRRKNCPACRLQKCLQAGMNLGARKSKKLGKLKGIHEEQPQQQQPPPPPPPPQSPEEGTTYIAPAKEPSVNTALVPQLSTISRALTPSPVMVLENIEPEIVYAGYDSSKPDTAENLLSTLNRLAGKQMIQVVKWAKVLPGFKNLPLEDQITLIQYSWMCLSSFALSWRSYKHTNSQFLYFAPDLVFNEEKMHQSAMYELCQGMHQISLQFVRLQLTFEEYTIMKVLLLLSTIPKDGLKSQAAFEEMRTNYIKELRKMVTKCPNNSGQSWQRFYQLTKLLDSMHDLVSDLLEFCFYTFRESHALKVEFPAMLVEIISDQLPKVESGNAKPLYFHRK
Assay: Antagonist activity at Gal4-fused human MR LBD expressed in HEK293T cells assessed as inhibition of aldosterone-induced transactivation activity after 16 hrs by luciferase reporter gene assay
Type: cell-based, HEK-293T

Question: How did the pIC50 turn out when `CCOc1ncc(C)c2c1[C@H](c1ccc(C#N)cc1OC)C(C(N)=O)=C(C)N2` [FINERENONE] was run?
Answer: Its pIC50 is 7.24.
